The source of these data is patent US9567339B2, “Primary carboxamides as BTK inhibitors” (AbbVie Inc., priority 2013, dated 2017).

Where only a bound is given, the exact number is not on record here.

In the first test the target is BTK, recombinant human catalytic domain (aa 393-659) (Homo sapiens (Human), UniProt Q06187). The experiment in a line: In vitro BTK kinase activity measured by time-resolved fluorescence resonance energy transfer (trFRET). The note with it: read-out: Btk IC50. Type of test: biochemical.
BTK, recombinant human catalytic domain (aa 393-659), sequence (Q06187 393-659): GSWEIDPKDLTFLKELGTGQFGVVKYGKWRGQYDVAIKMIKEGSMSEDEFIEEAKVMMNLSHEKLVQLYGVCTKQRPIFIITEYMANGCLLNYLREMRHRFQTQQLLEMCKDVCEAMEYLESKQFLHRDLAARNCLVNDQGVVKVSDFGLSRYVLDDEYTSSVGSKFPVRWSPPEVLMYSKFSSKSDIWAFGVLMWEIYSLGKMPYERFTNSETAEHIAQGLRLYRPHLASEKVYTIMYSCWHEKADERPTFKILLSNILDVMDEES
With `C=CC(=O)N1CC[C@@H](c2ccc(C(N)=O)c3[nH]c(-c4cnn(C)c4)cc23)C1` [E.9.49], the IC50 (as a rule, the concentration that gives 50% inhibition) was 0.1 to 1 µM.

Take `C=CC(=O)N1CC(N(C)c2ccc(C(N)=O)c3[nH]c(-c4cc5n(n4)CCOC5)cc23)C1` [E.9.4]: the half-maximal inhibitory concentration (IC50) is less than 0.1 µM.

Regarding `Cc1c(NC(=O)/C=C/CNC2CC2)cccc1-c1ccc(C(N)=O)c2[nH]ccc12` [J.1.4], the half-maximal inhibitory concentration (IC50) lay in the range of 0.1 to 1 µM.

For the compound `Cc1c(NC(=O)C2CCCN(C)C2)cccc1-c1ccc(C(N)=O)c2[nH]c(C3=CCN(S(C)(=O)=O)CC3)cc12` (centres unmarked) [D.7.37], the IC50 was 0.1 to 1 µM.

For `C=CC(=O)N1CCOC[C@@H](c2cnc(C(N)=O)c3[nH]ccc23)C1` [Example 3.1], the IC50 is 0.1 to 1 µM.

For the compound `CCC(=O)Nc1cccc(-c2ccc(C(N)=O)c3[nH]c(C4=CCN(S(C)(=O)=O)CC4)cc23)c1C` [D.7.41], the half-inhibitory concentration (IC50) was less than 0.1 µM.

As for `C=CC(=O)Nc1cc(-c2ccc(C(N)=O)c3[nH]ccc23)c(F)cc1F` [E.1.22], the IC50 is less than 0.1 µM.

Turning to `COC1CCCC(C(=O)Nc2cccc(-c3ccc(C(N)=O)c4[nH]c(C5=CCN(S(C)(=O)=O)CC5)cc34)c2C)C1` (centres unmarked) [D.7.34], the half-maximal inhibitory concentration (IC50) is less than 0.1 µM.

Turning to `C/C=C(/C)C(=O)Nc1cccc(-c2ccc(C(N)=O)c3[nH]c(C4=CCN(S(C)(=O)=O)CC4)cc23)c1C` [D.7.1], the IC50 is less than 0.1 µM.

As for `C=CC(=O)N1CC(N(C)c2ccc(C(N)=O)c3[nH]c(C4CCN(CCC)CC4)cc23)C1` [E.9.20], the IC50 is less than 0.1 µM.

Take `C=CC(=O)N(CC(C)C)c1cccc(-c2ccc(C(N)=O)c3[nH]ccc23)c1` [E.1.35, 4-(3-(N-isobutylacrylamido)phenyl)-1H-indole-7-carboxamide]: the 50% inhibitory concentration (IC50) is 0.1 to 1 µM.

With `C=CC(=O)N1CCC[C@@H](c2ccc(C(N)=O)c3[nH]c(-c4cnn(C)c4)cc23)C1` [Example 4.1], the half-maximal inhibitory concentration (IC50) is less than 0.1 µM.

For `C=CC(=O)N1CC(N(C)c2ccc(C(N)=O)c3[nH]c(-c4cnc5c(c4)COCC5)cc23)C1` [E.9.11], the IC50 is less than 0.1 µM.

Take `C=CC(=O)N1CC(N(C)c2ccc(C(N)=O)c3[nH]c(-c4ccc5c(c4)CCN(CC)C5)cc23)C1` [E.9.17]: the IC50 was less than 0.1 µM.

On to `Cc1c(NC(=O)C(C)Cl)cccc1-c1ccc(C(N)=O)c2[nH]c(C3=CCN(S(C)(=O)=O)CC3)cc12` (centres unmarked) [D.7.8], for which the IC50 is less than 0.1 µM.

Consider `C=CC(=O)N1CCC[C@@H](c2cnc(C(N)=O)c3[nH]ccc23)C1` [E.9.51], for which the half-maximal inhibitory concentration (IC50) was in the range of 0.1 to 1 µM.

In the case of `Cc1c(NC(=O)COc2cccnc2)cccc1-c1ccc(C(N)=O)c2[nH]c(C3=CCN(S(C)(=O)=O)CC3)cc12` [D.7.14], the IC50 is less than 0.1 µM.

For `Cn1cc(-c2cc3c(N4CCC[C@@H](N5Cc6ccc(F)cc6C5=O)C4)ccc(C(N)=O)c3[nH]2)cn1` [O.1.18*], the concentration for half-maximal inhibition (IC50) fell in the range of 1 to 10 µM.

As for `CC(=O)N1CC=C(c2cc3c(-c4cccc(-n5cnc6ccccc6c5=O)c4C)ccc(C(N)=O)c3[nH]2)CC1` [E.8.2], the concentration for half-maximal inhibition (IC50) is less than 0.1 µM.

On to `C=CC(=O)Nc1cc(-c2ccc(C(N)=O)c3[nH]ccc23)ccc1OCc1ccccc1` [E.1.12], for which the 50% inhibitory concentration (IC50) was 1 to 10 µM.

In the case of `C=CC(=O)Nc1cc(OCc2nccs2)cc(-c2ccc(C(N)=O)c3[nH]ccc23)c1` [E.1.15], the 50% inhibitory concentration (IC50) lay within 0.1 to 1 µM.

For the compound `CCC(=O)N1CC[C@@H](c2ccc(C(N)=O)c3[nH]c(C)cc23)C1` [E.10.2], the IC50 fell in the range of 0.1 to 1 µM.

As for `C=CC(=O)N1CCOC[C@H](c2cnc(C(N)=O)c3[nH]ccc23)C1` [Example 3.2], the concentration for half-maximal inhibition (IC50) was 0.1 to 1 µM.

Turning to `C=CC(=O)N(Cc1nccs1)c1cccc(-c2ccc(C(N)=O)c3[nH]c(C4=CCN(S(C)(=O)=O)CC4)cc23)c1C` [E.1.7], the IC50 was less than 0.1 µM.

Regarding `C=C(CN)C(=O)Nc1cccc(-c2ccc(C(N)=O)c3[nH]ccc23)c1` [G.1.2], the half-maximal inhibitory concentration (IC50) was less than 0.1 µM.

As for `Cc1c(NC(=O)C2=CCCCC2)cccc1-c1ccc(C(N)=O)c2[nH]c(C3=CCN(S(C)(=O)=O)CC3)cc12` [D.7.19], the IC50 is less than 0.1 µM.

As to `C=CC(=O)Nc1cncc(-c2ccc(C(N)=O)c3[nH]ccc23)c1` [E.1.4], the half-inhibitory concentration (IC50) is less than 0.1 µM.

Regarding `Cc1cnc(C(=O)Nc2cccc(-c3ccc(C(N)=O)c4[nH]c(C5=CCN(S(C)(=O)=O)CC5)cc34)c2C)s1` [D.7.32], the 50% inhibitory concentration (IC50) was less than 0.1 µM.

For `Cc1c(NCc2nccs2)cccc1-c1ccc(C(N)=O)c2[nH]c(C3=CCN(S(C)(=O)=O)CC3)cc12` [H.2.1, 4-(2-methyl-3-(thiazol-2-ylmethylamino)phenyl)-2-(1-(methylsulfonyl)-1,2,3,6-tetrahydropyridin-4-yl)-1H-indole-7-carboxamide], the IC50 is less than 0.1 µM.

As to `CC(C)(C)c1ccc(C(=O)N[C@@H]2CCCN(c3ccc(C(N)=O)c4[nH]c(-c5cccnc5)cc34)C2)cc1` [O.1.26], the 50% inhibitory concentration (IC50) was less than 0.1 µM.

In the case of `C=CC(=O)N1CCC[C@@H](c2cnc(C(N)=O)c3sc(-c4cnn(C)c4)nc23)C1` [E.9.37], the IC50 was less than 0.1 µM.

Still in this test, the particulars now being: trFRET, 0.001 mM ATP, biotin-TYR1 peptide substrate; read-out: Btk IC50.
In the case of `C=CC(=O)Nc1cccc(-c2ccc(C(N)=O)c3[nH]c(-c4ccnc(OC)c4)cc23)c1C` [A.1.13], the concentration for half-maximal inhibition (IC50) was less than 0.1 µM.

In the case of `Cc1c(-c2ccc(C(N)=O)c3[nH]c(C4=CCN(S(C)(=O)=O)CC4)cc23)cccc1N1CCc2ccccc2C1=O` [A.4.6], the concentration for half-maximal inhibition (IC50) is less than 0.1 µM.

Consider `Cc1c(NC(=O)c2ccc(C3CC3)cc2)cccc1-c1ccc(C(N)=O)c2[nH]c(-c3cncnc3)cc12` [A.13.4], for which the half-maximal inhibitory concentration (IC50) fell in the range of 0.1 to 1 µM.

For `CC(=O)N1CC=C(c2cc3c(-c4cccc(-n5cnc6ccc(F)cc6c5=O)c4C)ccc(C(N)=O)c3[nH]2)CC1` [A.3.2], the IC50 is less than 0.1 µM.

On to `CNc1cccc(-c2ccc(C(N)=O)c3[nH]ccc23)c1` [A.6.2], for which the IC50 was 1 to 10 µM.

With `Cc1ccc(-c2cc3c(-c4cccnc4)ccc(C(N)=O)c3[nH]2)cc1` [A.8.3], the half-inhibitory concentration (IC50) fell in the range of 0.1 to 1 µM.

Turning to `Cc1c(NC(=O)/C=C/c2cccnc2)cccc1-c1ccc(C(N)=O)c2[nH]ccc12` [D.8.4], the IC50 is 0.1 to 1 µM.

With `C=CC(=O)Nc1cccc(-c2ccc(C(N)=O)c3[nH]c(-c4cc(S(=O)(=O)N5CCCC5)ccc4C)cc23)c1C` [A.1.28], the concentration for half-maximal inhibition (IC50) fell in the range of 0.1 to 1 µM.

As for `C/C=C/C(=O)Nc1c[nH]c2c(C(N)=O)ccc(-c3cccc(NC(=O)c4nccs4)c3C)c12` [D.3.3], the IC50 lay within 1 to 10 µM.

For `Cc1c(-c2ccc(C(N)=O)c3[nH]c(-c4cccnc4)cc23)cccc1-n1cnc2ccccc2c1=O` [A.7.2], the IC50 is less than 0.1 µM.

Consider `N#CCNS(=O)(=O)c1cccc(-c2ccc(C(N)=O)c3[nH]ccc23)c1` [A.6.1], for which the half-maximal inhibitory concentration (IC50) is 1 to 10 µM.

For `C=CC(=O)Nc1cccc(-c2ccc(C(N)=O)c3[nH]c(-c4ccc(CN5CCOCC5)cc4)cc23)c1C` [A.1.44], the half-maximal inhibitory concentration (IC50) was less than 0.1 µM.

For the compound `C=CC(=O)Nc1cc(NCc2nccs2)cc(-c2ccc(C(N)=O)c3[nH]c(C4=CCN(S(C)(=O)=O)CC4)cc23)c1` [Example 6, 4-(3-Acrylamido-5-(thiazol-2-ylmethylamino)phenyl)-2-(1-(methylsulfonyl)-1,2,3,6-tetrahydropyridin-4-yl)-1H-indole-7-carboxamide], the IC50 is less than 0.1 µM.

Turning to `C=CC(=O)Nc1cccc(-c2ccc(C(N)=O)c3[nH]c(-c4ccc(OC)cc4)cc23)c1C` [A.1.23], the IC50 is less than 0.1 µM.

On to `C/C=C/C(=O)Nc1cccc(-c2ccc(C(N)=O)c3[nH]ccc23)c1C` [D.8.9], for which the IC50 lay within 0.1 to 1 µM.

In the case of `C=CC(=O)Nc1cccc(-c2ccc(C(N)=O)c3[nH]c(C)cc23)c1` [Example 19, 4-(3-Acrylamidophenyl)-2-methyl-1H-indole-7-carboxamide], the half-inhibitory concentration (IC50) was less than 0.1 µM.

Turning to `N#CCNC(=O)c1cccc(-c2ccc(C(N)=O)c3[nH]ccc23)c1` [Example 15, 4-(3-((Cyanomethyl)carbamoyl)phenyl)-1H-indole-7-carboxamide], the concentration for half-maximal inhibition (IC50) lay in the range of 1 to 10 µM.

Turning to `C=CC(=O)Nc1cccc(-c2ccc(C(N)=O)c3[nH]c(-c4cncnc4)cc23)c1C` [A.1.10], the IC50 is less than 0.1 µM.

Consider `Cn1cc(-c2cc3c(-c4cccc(NC(=O)c5nccs5)c4CO)ccc(C(N)=O)c3[nH]2)cn1` [M.1, N-(3-(7-carbamoyl-2-(1-methyl-1H-pyrazol-4-yl)-1H-indol-4-yl)-2-(hydroxymethyl)phenyl)thiazole-2-carboxamide], for which the IC50 is less than 0.1 µM.

Turning to `C=CC(=O)Nc1cccc(-c2ccc(C(N)=O)c3[nH]c(-c4ccccc4F)cc23)c1C` [A.1.29], the IC50 is less than 0.1 µM.

Turning to `C=CC(=O)Nc1cccc(-c2ccc(C(N)=O)c3[nH]c(-c4ccc(C)nc4)cc23)c1C` [A.1.24], the IC50 is less than 0.1 µM.

Regarding `Cc1c(NC(=O)/C=C/c2ccccn2)cccc1-c1ccc(C(N)=O)c2[nH]ccc12` [D.8.3], the 50% inhibitory concentration (IC50) was 0.1 to 1 µM.

In the case of `CCNC(=O)/C=C/C(=O)Nc1cccc(-c2ccc(C(N)=O)c3[nH]ccc23)c1` [D.4.3], the concentration for half-maximal inhibition (IC50) was in the range of 1 to 10 µM.

As for `C=CC(=O)Nc1cccc(-c2ccc(C(N)=O)c3[nH]c(-c4ccc(S(C)(=O)=O)cc4)cc23)c1C` [A.1.40], the IC50 was less than 0.1 µM.

For the compound `CS(=O)(=O)N1CC=C(c2cc3c(-c4cccc(Nc5ccnc(C#N)n5)c4)ccc(C(N)=O)c3[nH]2)CC1` [A.4.8], the IC50 is less than 0.1 µM.

In the case of `C=CC(=O)N1CCC[C@H](c2ccc(C(N)=O)c3[nH]ccc23)C1` [30 (R), (R)-4-(1-Acryloylpiperidin-3-yl)-1H-indole-7-carboxamide], the IC50 was in the range of 0.1 to 1 µM.

Regarding `C/C(O)=C(/C#N)C(=O)Nc1cccc(-c2ccc(C(N)=O)c3[nH]ccc23)c1` [Example 7, (E)-4-(3-(2-Cyano-3-hydroxybut-2-enamido)phenyl)-1H -indole-7-carboxamide], the IC50 fell in the range of 1 to 10 µM.

In the case of `Cc1ccc2c(c1)C(=O)N(c1cccc(-c3ccc(C(N)=O)c4[nH]c(-c5cccnc5)cc34)c1C)C2` [A.7.5], the half-inhibitory concentration (IC50) was less than 0.1 µM.

For the compound `Cc1c(N)cccc1-c1ccc(C(N)=O)c2[nH]c(C3=CCN(S(C)(=O)=O)CC3)cc12` [A.4.5, 4-(3-amino-2-methylphenyl)-2-(1-(methylsulfonyl)-1,2,3,6-tetrahydropyridin-4-yl)-1H-indole-7-carboxamide], the half-inhibitory concentration (IC50) is less than 0.1 µM.

On to `C=CC(=O)Nc1cccc(-c2ccc(C(N)=O)c3[nH]c(C4=CCC(F)(F)CC4)cc23)c1C` [E.1, 4-(3-Acrylamido-2-methylphenyl)-2-(4,4-difluorocyclohex-1-en-1-yl)-1H-indole-7-carboxamide], for which the half-inhibitory concentration (IC50) is less than 0.1 µM.

Regarding `Cc1c(NC(=O)c2nccs2)cccc1-c1ccc(C(N)=O)c2[nH]c(-c3cccnc3)cc12` [A.7.8], the IC50 was less than 0.1 µM.
